Data as given in ChEMBL document CHEMBL1177644, “16-bromoepiandrosterone, an activator of the mammalian immune system, inhibits glucose 6-phosphate dehydrogenase from Trypanosoma cruzi and is toxic to these parasites grown in culture” (Bioorg Med Chem, 2010).
pIC50: −log10 of the molar value.

Tests used:
[1] = Inhibition of His-tagged Trypanosoma cruzi G6PDH expressed in Escherichia coli BL21 by spectrophotometry
[2] = test system: Trypanosoma cruzi; test: Antitrypanosomal activity against Trypanosoma cruzi Y epimastigotes assessed as viability after 72 hrs by MTS assay; type: functional; conditions: read-out: LD50 (the source's name)

Structure (SMILES)	pIC50 [1]	LC50 [2] [µM]
C[C@]12CC[C@H](O)CC1=CC[C@@H]1[C@@H]2CC[C@]2(C)C(=O)[C@H](Br)C[C@@H]12	6.67	20.6
C[C@]12CC[C@H](O)C[C@@H]1CC[C@@H]1[C@@H]2CC[C@]2(C)C(=O)[C@H](Br)C[C@@H]12 [16.ALPHA.-BROMOEPIANDROSTERONE]	7.07	12.4
C[C@]12CC[C@H](O)C[C@@H]1CC[C@@H]1[C@@H]2CC[C@]2(C)C(=O)CC[C@@H]12 [EPIANDROSTERONE]	5.25	36.5
C[C@]12CC[C@H](O)CC1=CC[C@@H]1[C@@H]2CC[C@]2(C)C(=O)CC[C@@H]12 [PRASTERONE]	4.60	–
